# Source: PMC10722324 (Heliyon, 2023)
# Legend:
# Aβ1–42 = Aβ1–42 (Homo sapiens, UniProt P05067); experiment: biochemical; settings: Aβ aggregation (IC50), Aβ1-42, ThT, 37 °C 48 h, compounds 0–200 μM
# [1] = test system: differentiated SH-SY5Y cells; experiment: Toxicity screening on differentiated SH-SY5Y cells; assay type: cell-based, human; settings: MTT, mean ± SD (n = 5)
# BuChE = BuChE (Homo sapiens, UniProt P06276); experiment: biochemical
# Chain of BuChE (P06276 29-602): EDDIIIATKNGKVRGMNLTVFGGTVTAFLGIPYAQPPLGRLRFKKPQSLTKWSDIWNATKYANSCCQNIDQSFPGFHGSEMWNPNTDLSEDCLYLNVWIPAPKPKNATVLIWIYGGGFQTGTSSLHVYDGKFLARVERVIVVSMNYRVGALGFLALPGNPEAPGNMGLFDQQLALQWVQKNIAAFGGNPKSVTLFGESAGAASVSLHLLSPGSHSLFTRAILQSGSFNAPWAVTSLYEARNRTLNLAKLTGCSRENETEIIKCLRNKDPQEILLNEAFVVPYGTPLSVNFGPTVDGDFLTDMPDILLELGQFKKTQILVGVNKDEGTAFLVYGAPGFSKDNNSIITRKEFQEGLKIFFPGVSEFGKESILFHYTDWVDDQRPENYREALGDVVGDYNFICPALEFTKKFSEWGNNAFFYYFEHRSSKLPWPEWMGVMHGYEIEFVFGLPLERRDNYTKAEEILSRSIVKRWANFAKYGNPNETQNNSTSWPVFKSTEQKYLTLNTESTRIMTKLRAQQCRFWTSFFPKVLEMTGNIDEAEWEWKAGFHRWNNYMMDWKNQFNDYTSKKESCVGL
# Chain of Aβ1–42 (P05067 672-713): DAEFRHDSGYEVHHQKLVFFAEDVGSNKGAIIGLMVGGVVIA
compound,measurement,setting,value
"COc1c2ccoc2cc2oc(-c3ccccc3)cc(=O)c12 [CY2, pinnatin]",IC50,Aβ1–42,195 ± 3.2 µM
same,Cell viability,[1]; 0.1 μM,96.7 ± 3.1 % control
same,Cell viability,[1]; 1 μM,99.3 ± 4.7 % control
same,Cell viability,[1]; 10 μM,96.1 ± 4.3 % control
same,Cell viability,[1]; 100 μM,68.5 ± 2.2 % control
same,IC50,BuChE,82 ± 1.3 µM
"COc1c(C(=O)/C=C(\O)c2ccccc2)ccc2occc12 [CY3, pongamol]",IC50,Aβ1–42,> 200 µM
same,Cell viability,[1]; 0.1 μM,103.3 ± 1.4 % control
same,Cell viability,[1]; 1 μM,103.6 ± 1.1 % control
same,Cell viability,[1]; 10 μM,104.3 ± 3.8 % control
same,Cell viability,[1]; 100 μM,103.1 ± 4.0 % control
same,IC50,BuChE,102 ± 1.27 µM
"O=c1cc(-c2ccccc2)oc2c1ccc1occc12 [CY14, lanceolatin B]",IC50,Aβ1–42,106 µM
same,Cell viability,[1]; 0.1 μM,102.4 ± 1.3 % control
same,Cell viability,[1]; 1 μM,100.1 ± 2.6 % control
same,Cell viability,[1]; 10 μM,97.4 ± 3.2 % control
same,Cell viability,[1]; 100 μM,72.4 ± 3.4 % control
"COc1cc(/C=C/C(=O)CC(=O)/C=C/c2ccc(O)c(OC)c2)ccc1O [Curcumin, reference compound]",Cell viability,[1]; 0.1 μM,104.1 ± 3.2 % control
same,Cell viability,[1]; 1 μM,100.4 ± 4.6 % control
same,Cell viability,[1]; 10 μM,100.5 ± 7.7 % control
same,Cell viability,[1]; 100 μM,79.1 ± 3.6 % control
